Assay results reported in PMC6003569, “Novel fluorinated carbonic anhydrase IX inhibitors reduce hypoxia-induced acidification and clonogenic survival of cancer cells” (Oncotarget, 2018).
Entries after “also recorded” stand apart in the source; their conditions may differ. Where two headings read alike, the source gives them in different places.

Experiments:
[1] = tested on: HeLa cells; experiment: alamarBlue cell viability assay; type: cell-based, human; conditions: 72 h; for EC50: Homo sapiens, HeLa
Protocol: (§3) Cytotoxicity of inhibitors was determined by the alamarBlue® cell viability assay (Life Technologies). […] Briefly, cells were seeded in 96-well plates and allowed to attach overnight in normoxia. […] After 72 h, cells were incubated with 10% alamarBlue® for 2 h under normoxia at 37° C. The fluorescence signal was measured using the multi-mode microplate reader (FLUOstar® Omega, BMG Labtech) at 580 nm (excitation wavelength 540 nm). Response to treatments was quantified by evaluating EC50 values (concentration of inhibitor that leads to half-maximum viability response determined by Hill fit).

[2] = tested on: A549 cells; experiment: alamarBlue cell viability assay; type: cell-based; conditions: Homo sapiens, A549, 72 h
Protocol: as §3

[3] = tested on: AsPC-1 cells; experiment: alamarBlue cell viability assay; type: cell-based; conditions: Homo sapiens, ASPC1, 48 h
Protocol: as §3

[4] = tested on: HeLa cells; experiment: Extracellular acidification (pH) assay; type: cell-based, human; conditions: for hypoxia-induced extracellular acidification: hypoxia 0.2% O2, 72 h, 5–50 μM; for effect on extracellular acidification under normoxia: normoxia 21% O2, 72 h
[5] = tested on: H460 cells; experiment: alamarBlue cell viability assay; type: cell-based; conditions: Homo sapiens, NCI-H460, 72 h
Protocol: as §3

[6] = tested on: CA activity in hypoxic HeLa CA IX KO cells; experiment: CA catalytic activity via MS gas-analysis, CA IX knockout cells; type: cell-based, human; conditions: both HeLa CA IX KO lines
Protocol: The reaction sequence of ^18O loss from ^13C^18O^18O (m/z = 49) over the intermediate product ^13C^18O^16O (m/z = 47) and the end product ^13C^16O^16O (m/z = 45) was monitored with a quadrupole mass spectrometer (OmniStar GSD 320; Pfeiffer Vacuum, Asslar, Germany). The relative ^18O enrichment was calculated from the measured 45, 47, and 49 m/z abundance as a function of time according to: log enrichment = log (49×100/(49+47+45)). For the calculation of CA activity, the rate of ^18O depletion was obtained from the linear slope of the log enrichment over the time, using OriginPro 8.6 (OriginLab Corporation). The rate was compared with the corresponding rate of the non-catalyzed reaction. Enzyme activity in units (U) was calculated from these two values as defined by Badger and Price [59]. […] For every measurement, the non-catalyzed reaction was determined for 6 min in the presence of inhibitor, before cell suspension was added to the measuring cuvette and the catalyzed reaction was determined for 8 min. […] IC50 values were determined by Hill equation using OriginPro 8.6. To investigate specificity of the inhibitors in HeLa WT and HeLa CA IX KO cells, the non-catalyzed reaction was determined for 6 min in the absence of inhibitor, before a suspension of 5 × 10^6 cells was added to the measuring cuvette. […]

[7] = tested on: MDA-MB-231 cells; experiment: alamarBlue cell viability assay; type: cell-based; conditions: Homo sapiens, MDA-MB-231, 72 h
Protocol: as §3

[8] = tested on: AsPC-1 cells; experiment: Extracellular acidification (pH) assay; type: cell-based, human; conditions: AsPC-1, hypoxia 0.2% O2, 72 h
[9] = molecular target: T1, CA VB (Homo sapiens, UniProt Q9Y2D0); experiment: Fluorescent thermal shift assay (FTSA); type: binding; conditions: pH 7.0, 37° C
T1 construct: 12 recombinant catalytic domains of human active CA isoforms as determined by FTSA
T1 sequence (Q9Y2D0 37-296 limits assumed): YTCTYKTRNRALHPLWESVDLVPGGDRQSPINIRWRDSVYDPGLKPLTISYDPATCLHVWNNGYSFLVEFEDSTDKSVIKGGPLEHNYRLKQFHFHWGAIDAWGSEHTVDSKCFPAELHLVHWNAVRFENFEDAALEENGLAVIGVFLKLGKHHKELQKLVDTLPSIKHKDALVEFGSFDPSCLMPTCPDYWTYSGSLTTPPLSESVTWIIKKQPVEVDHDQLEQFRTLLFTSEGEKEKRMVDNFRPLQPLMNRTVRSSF
Protocol: (§1) The binding affinity of synthesized compounds to recombinant human CAs was measured by the fluorescent thermal shift assay (FTSA) where the thermal stabilization of the protein by the compound was determined by following the fluorescence dependence on temperature at various added compound concentrations. The melting temperature (Tm) of CA was measured using the Corbett Rotor-Gene 6000 instrument (QIAGEN Rotor-Gene Q, excitation at 365 ± 20 nm, emission detection at 460 ± 15 nm). The protein was heated from 25 to 99° C at a rate of 1° C/min and the fluorescence change of the solvatochromic dye 8-anilino-1-naphthalene sulfonate (ANS) was followed. The samples consisted of 5–10 μM CA, 0–200 μM ligand, 50 μM ANS, and 50 mM sodium phosphate buffer containing 100 mM NaCl at pH 7.0, with the final DMSO concentration of 2% (v/v). Protein unfolding profiles and the melting temperatures were determined at each ligand concentration while recording extrinsic fluorescence of ANS. Data analysis was performed as previously described. All experiments were repeated at least twice.

[10] = molecular target: T2, CA VA (Homo sapiens, UniProt P35218); experiment: Fluorescent thermal shift assay (FTSA); type: binding; conditions: pH 7.0, 37° C
T2 construct: 12 recombinant catalytic domains of human active CA isoforms as determined by FTSA
T2 sequence (P35218 39-296 limits assumed): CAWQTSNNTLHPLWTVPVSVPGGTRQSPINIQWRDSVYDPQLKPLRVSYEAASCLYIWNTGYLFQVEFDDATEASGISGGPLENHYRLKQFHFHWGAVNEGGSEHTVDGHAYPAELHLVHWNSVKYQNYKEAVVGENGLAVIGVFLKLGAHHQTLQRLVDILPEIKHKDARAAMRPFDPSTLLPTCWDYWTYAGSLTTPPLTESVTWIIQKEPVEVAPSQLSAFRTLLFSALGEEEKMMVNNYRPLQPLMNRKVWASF
Protocol: as §1

[11] = molecular target: T3, CA I (Homo sapiens, UniProt P00915); experiment: Fluorescent thermal shift assay (FTSA); type: binding; conditions: pH 7.0, 37° C
T3 construct: 12 recombinant catalytic domains of human active CA isoforms as determined by FTSA
T3 sequence (P00915 4-261 limits assumed): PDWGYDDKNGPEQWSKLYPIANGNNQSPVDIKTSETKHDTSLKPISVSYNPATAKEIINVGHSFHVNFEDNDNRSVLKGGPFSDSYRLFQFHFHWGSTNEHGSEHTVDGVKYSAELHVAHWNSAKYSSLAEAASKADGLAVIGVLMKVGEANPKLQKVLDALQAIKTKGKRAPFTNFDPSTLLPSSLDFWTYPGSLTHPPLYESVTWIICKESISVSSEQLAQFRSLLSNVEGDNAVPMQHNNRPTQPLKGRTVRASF
Protocol: as §1

[12] = molecular target: T4, CA VII (Homo sapiens, UniProt P43166); experiment: Fluorescent thermal shift assay (FTSA); type: binding; conditions: pH 7.0, 37° C
T4 construct: 12 recombinant catalytic domains of human active CA isoforms as determined by FTSA
T4 sequence (P43166 5-262 limits assumed): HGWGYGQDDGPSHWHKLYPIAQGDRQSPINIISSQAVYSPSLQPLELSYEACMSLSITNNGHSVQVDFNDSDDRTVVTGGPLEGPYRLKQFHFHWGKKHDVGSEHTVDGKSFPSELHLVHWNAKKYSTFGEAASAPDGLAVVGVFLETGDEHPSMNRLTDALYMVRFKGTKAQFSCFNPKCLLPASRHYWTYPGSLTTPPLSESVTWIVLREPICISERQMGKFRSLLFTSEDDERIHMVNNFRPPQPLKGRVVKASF
Protocol: as §1

[13] = molecular target: T5, CA XII (Homo sapiens, UniProt O43570); experiment: Fluorescent thermal shift assay (FTSA); type: binding; conditions: pH 7.0, 37° C
T5 construct: 12 recombinant catalytic domains of human active CA isoforms as determined by FTSA
T5 sequence (O43570 30-289 limits assumed): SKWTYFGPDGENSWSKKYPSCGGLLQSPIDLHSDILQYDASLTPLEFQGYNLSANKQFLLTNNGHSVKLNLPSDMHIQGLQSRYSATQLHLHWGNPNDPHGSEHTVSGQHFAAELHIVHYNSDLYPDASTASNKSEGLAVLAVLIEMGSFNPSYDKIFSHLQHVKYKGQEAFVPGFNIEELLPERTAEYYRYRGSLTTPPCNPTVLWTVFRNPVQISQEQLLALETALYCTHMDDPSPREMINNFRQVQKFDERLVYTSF
Protocol: as §1

[14] = molecular target: T6, CA XIII (Homo sapiens, UniProt Q8N1Q1); experiment: Fluorescent thermal shift assay (FTSA); type: binding; conditions: pH 7.0, 37° C
T6 construct: 12 recombinant catalytic domains of human active CA isoforms as determined by FTSA
T6 sequence (Q8N1Q1 4-261 limits assumed): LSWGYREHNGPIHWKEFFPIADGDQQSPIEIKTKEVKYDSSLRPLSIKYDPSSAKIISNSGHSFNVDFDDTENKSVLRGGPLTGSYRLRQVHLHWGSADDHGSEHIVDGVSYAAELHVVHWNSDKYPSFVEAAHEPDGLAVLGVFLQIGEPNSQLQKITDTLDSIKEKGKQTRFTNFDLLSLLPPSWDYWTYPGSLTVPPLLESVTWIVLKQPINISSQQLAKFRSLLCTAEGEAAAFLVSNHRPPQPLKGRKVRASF
Protocol: as §1

[15] = molecular target: T7, CA III (Homo sapiens, UniProt P07451); experiment: Fluorescent thermal shift assay (FTSA); type: binding; conditions: pH 7.0, 37° C
T7 construct: 12 recombinant catalytic domains of human active CA isoforms as determined by FTSA
T7 sequence (P07451 3-259 limits assumed): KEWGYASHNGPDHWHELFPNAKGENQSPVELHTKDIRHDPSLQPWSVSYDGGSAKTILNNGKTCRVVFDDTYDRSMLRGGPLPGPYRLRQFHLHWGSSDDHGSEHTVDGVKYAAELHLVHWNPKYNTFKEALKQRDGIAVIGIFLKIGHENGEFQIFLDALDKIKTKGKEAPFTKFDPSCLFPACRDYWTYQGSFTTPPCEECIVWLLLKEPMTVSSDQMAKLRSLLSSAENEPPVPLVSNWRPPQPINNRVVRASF
Protocol: as §1

[16] = molecular target: T8, CA II (Homo sapiens, UniProt P00918); experiment: Fluorescent thermal shift assay (FTSA); type: binding; conditions: pH 7.0, 37° C
T8 construct: 12 recombinant catalytic domains of human active CA isoforms as determined by FTSA
Protocol: as §1

[17] = molecular target: T9, CA IX (Homo sapiens, UniProt Q16790); experiment: Fluorescent thermal shift assay (FTSA); type: binding; conditions: pH 7.0, 37° C
T9 construct: 12 recombinant catalytic domains of human active CA isoforms as determined by FTSA
Protocol: as §1

[18] = molecular target: T10, CA XIV (Homo sapiens, UniProt Q9ULX7); experiment: Fluorescent thermal shift assay (FTSA); type: binding; conditions: pH 7.0, 37° C
T10 construct: 12 recombinant catalytic domains of human active CA isoforms as determined by FTSA
T10 sequence (Q9ULX7 20-278 limits assumed): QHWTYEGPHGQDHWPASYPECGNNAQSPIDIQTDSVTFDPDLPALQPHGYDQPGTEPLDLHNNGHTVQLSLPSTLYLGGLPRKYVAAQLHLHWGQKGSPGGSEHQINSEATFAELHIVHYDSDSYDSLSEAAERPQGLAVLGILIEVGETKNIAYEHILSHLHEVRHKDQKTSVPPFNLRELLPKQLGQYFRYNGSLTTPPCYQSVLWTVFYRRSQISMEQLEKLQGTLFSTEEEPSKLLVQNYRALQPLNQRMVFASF
Protocol: as §1

[19] = molecular target: T11, CA VI (Homo sapiens, UniProt P23280); experiment: Fluorescent thermal shift assay (FTSA); type: binding; conditions: pH 7.0, 37° C
T11 construct: 12 recombinant catalytic domains of human active CA isoforms as determined by FTSA
T11 sequence (P23280 21-278 limits assumed): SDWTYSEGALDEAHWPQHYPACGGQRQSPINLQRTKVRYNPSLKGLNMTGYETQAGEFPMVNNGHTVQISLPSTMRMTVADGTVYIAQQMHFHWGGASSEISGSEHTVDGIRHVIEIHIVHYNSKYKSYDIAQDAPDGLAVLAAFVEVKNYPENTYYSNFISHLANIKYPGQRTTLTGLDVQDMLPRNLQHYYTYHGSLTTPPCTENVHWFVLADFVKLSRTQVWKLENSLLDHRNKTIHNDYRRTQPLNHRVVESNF
Protocol: as §1

[20] = molecular target: T12, CA IV (Homo sapiens, UniProt P22748); experiment: Fluorescent thermal shift assay (FTSA); type: binding; conditions: pH 7.0, 37° C
T12 construct: 12 recombinant catalytic domains of human active CA isoforms as determined by FTSA
T12 sequence (P22748 21-285 limits assumed): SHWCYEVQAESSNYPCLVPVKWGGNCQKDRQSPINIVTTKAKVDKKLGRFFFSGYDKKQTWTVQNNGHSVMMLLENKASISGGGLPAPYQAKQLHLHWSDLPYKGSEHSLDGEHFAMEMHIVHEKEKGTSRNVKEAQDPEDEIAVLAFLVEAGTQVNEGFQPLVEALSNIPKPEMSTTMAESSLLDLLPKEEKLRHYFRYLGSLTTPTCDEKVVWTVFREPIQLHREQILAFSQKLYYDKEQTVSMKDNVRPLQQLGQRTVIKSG
Protocol: as §1

[21] = molecular target: T5, CA XII; experiment: Stopped-flow CO2 hydration inhibition assay (SFA); type: biochemical; conditions: pH 7.5, 25° C, value in parentheses
Protocol: (§2) The enzymatic activity of carbonic anhydrase isoforms and their inhibition was determined by the stopped-flow CO2 hydration assay where the formed acid was followed by the absorbance change of a pH indicator. The Applied Photophysics SX.18MV-R stopped-flow spectrometer was used to measure the absorbance change of Phenol-Red pH indicator at 557 nm. Saturated CO2 solution was prepared by bubbling the CO2 gas in MilliQ water at 25° C for 1 h. Experiments were performed at 25° C using 25 mM Hepes buffer containing 50 mM NaCl (pH 7.5), 0–10 μM compound with the final 0.4% (v/v) DMSO concentration. The final enzyme concentration was 10 nM for CA IX and 20 nM for CA XII. Raw curves of absorbance change were analyzed using Origin 8.1 (OriginLab Corporation) and the slope values were used to evaluate the rates of CO2 hydration. Spontaneous CO2 hydration rate was used as a zero value, while the CA catalyzed reaction rate - as a maximum value.

[22] = molecular target: T9, CA IX; experiment: Stopped-flow CO2 hydration inhibition assay (SFA); type: biochemical; conditions: pH 7.5, 25° C, value in parentheses
Protocol: as §2

[23] = tested on: 4 investigated cell lines; experiment: Extracellular acidification (pH) assay, cell line panel; type: cell-based, human; conditions: 50 μM, hypoxia 0.2% O2, 72 h
Protocol: HeLa, H460, MDA-MB-231, and AsPC-1 cells were cultured in DMEM (Lonza) supplemented with 10% FBS (Lonza), whereas A549 cells were grown in-house made analogous medium differing only by a lower amount of sodium bicarbonate (final concentration 10 mM). Cell densities for each cell line were optimized to get ~100% confluence at the end of experiment under normoxic and hypoxic (0.2% O2) conditions upon vehicle (0.05% DMSO) treatment. Such conditions were necessary to obtain the highest possible level of CA IX-dependent extracellular acidification. Cells were plated in 6 cm dishes and allowed to attach overnight in normoxia. […] Results are shown as a difference between the pH of medium in the control plate (without seeded cells) and the pH of medium in the targeted plate (cells exposed to the compound or vehicle).

[24] = tested on: H460 spheroids; experiment: Clonogenic cell survival assay, 3D spheroids; type: cell-based, human; conditions: non-hypoxic (day 4) versus hypoxic (day 11) H460 spheroids, 5–15 μM, 24 h
Protocol: Clonogenic survival of HeLa cell monolayers was evaluated using cell densities applied in the extracellular acidification assay to determine the effect of inhibitors on the clonogenic cell survival while having the same acidification conditions. […] Then cells were trypsinized, reseeded in triplicate with known cell densities and allowed to form colonies for 14 days. […] Single cell suspensions were prepared and cells were plated in triplicate with known cell densities and allowed to form colonies for 14 days. […] Surviving fraction was normalized to vehicle (DMSO). To prepare plates for the growth of attachment-free H460 spheroids, autoclaved 1.5% w/v agarose (Sigma-Aldrich) was dispensed in the inner 60 wells of 96-well plates (50 μL/well) and left for polymerization at room temperature for 30 min. H460 cells were plated in modified 96-well plates to the surface of agarose menisci with a density of 500 cells/well. The DMEM was refreshed every two days. After 7 or 11 days in culture, spheroids were incubated with 20 μg/mL pimonidazole (PIMO, Hypoxyprobe-1, HP-1000, BioConnect) for 2 h at 37° C, collected and cryoconserved for immunofluorescence analysis (see below).

[25] = tested on: H460 cells; experiment: Extracellular acidification (pH) assay; type: cell-based, human; conditions: H460, hypoxia 0.2% O2, 72 h
[26] = tested on: extracellular CA in intact hypoxic MDA-MB-231 cells; conditions: 1 μM; cited from earlier work
[27] = 0.2% O2 (hypoxia), read-out: EC50
[28] = 21% O2 (normoxia), read-out: EC50
[29] = H460, 0.2% O2 (hypoxia), read-out: EC50
[30] = H460, 21% O2 (normoxia), read-out: EC50

SMILES	hypoxia-induced extracellular acidification [4]	effect on extracellular acidification under normoxia [4]	EC50 [1, 27] [µM]	EC50 [1, 28] [µM]	EC50 [5, 29] [µM]	EC50 [5, 30] [µM]	Kd [9] [µM]	Kd [10] [µM]	Kd [11] [µM]	Kd [12] [µM]	Kd [13] [µM]	Kd [14] [µM]	Kd [15] [µM]	Kd [16] [µM]	Kd [17] [µM]	Kd [18] [µM]	Kd [19] [µM]	Kd [20] [µM]	Ki [22] [µM]	further results
NS(=O)(=O)c1c(F)c(F)c(SCCO)c(F)c1NC1CCCCCCC1 [VD12-09]	significantly (p < 0.05) reduced	negligible	–	–	–	–	–	–	–	–	–	–	–	–	–	–	–	–	–	EC50 ([1]; 0.2% O2 (hypoxia)): 46.9 ± 7 µM; EC50 ([1]; 21% O2 (normoxia)): 21.6 ± 4.1 µM; EC50 ([2]; A549, 0.2% O2 (hypoxia)): 98.8 ± 8.5 µM; EC50 ([2]; A549, 21% O2 (normoxia)): 33.8 ± 2.5 µM; EC50 ([3]; AsPC-1, 0.2% O2 (hypoxia)): 83.3 ± 5.8 µM; EC50 ([3]; AsPC-1, 21% O2 (normoxia)): 100 ± 20 µM; EC50 ([5]; H460, 0.2% O2 (hypoxia)): 37 ± 7.6 µM; EC50 ([5]; H460, 21% O2 (normoxia)): 17.8 ± 2.2 µM; CA activity after addition of inhibitor ([6]; 30 μM): did not alter CA activity; EC50 ([7]; MDA-MB-231, 0.2% O2 (hypoxia)): 67.6 ± 7.1 µM; EC50 ([7]; MDA-MB-231, 21% O2 (normoxia)): 55.4 ± 6.6 µM
NS(=O)(=O)c1c(F)c(F)c(SCCc2ccc(C(=O)O)cc2)c(F)c1NC1CCCCCCCCCCC1 [VR16-09, 4-(2-{[4-(Aminosulfonyl)-3-(cyclododecylamino)-2,5,6-tetrafluorophenyl]thio}ethyl)benzoic acid]	significantly (p < 0.05) reduced	negligible	40.8 ± 9.6	20.2 ± 4.3	40 ± 9.6	19.3 ± 3.6	45	≥ 200	≥ 200	37	0.71	0.02	≥ 200	≥ 200	0.00016	0.17	≥ 200	≥ 200	< 0.001	EC50 ([2]; A549, 0.2% O2 (hypoxia), read-out: EC50): 76.7 ± 2.9 µM; EC50 ([2]; A549, 21% O2 (normoxia), read-out: EC50): 17 ± 1 µM; EC50 ([3]; AsPC-1, 0.2% O2 (hypoxia), read-out: EC50): 160 ± 17 µM; EC50 ([3]; AsPC-1, 21% O2 (normoxia), read-out: EC50): 153 ± 23 µM; hypoxia-induced acidosis [8]: increased; Ki [21]: 0.1 µM; CA activity after addition of inhibitor ([6]; 300 nM): did not alter CA activity; EC50 ([7]; MDA-MB-231, 0.2% O2 (hypoxia), read-out: EC50): 84.2 ± 4.9 µM; EC50 ([7]; MDA-MB-231, 21% O2 (normoxia), read-out: EC50): 74.2 ± 3.8 µM; hypoxia-induced acidosis [23]: significantly reduced; clonogenic survival of cells derived from spheroids [24]: hypoxia-dependent effect on clonogenic survival
NS(=O)(=O)c1c(F)c(F)c(SCCc2ccc(C(=O)O)cc2)c(F)c1NC1CCCCCCC1 [VR16-10, 4-(2-{[4-(Aminosulfonyl)-3-(cyclooctylamino)-2,5,6-tetrafluorophenyl]thio}ethyl)benzoic acid]	–	–	> 150	93.3 ± 5.8	> 150	83.3 ± 15.3	0.1	5	5	0.1	0.37	0.04	≥ 200	1	0.0002	0.17	26.3	1.82	< 0.001	Cytotoxic ratio (CR) of selectivity to hypoxia ([1]; human, HeLa cells): > 0.62; hypoxia-induced extracellular acidification [25]: Dose-dependent reduction; also recorded: smallest, albeit significant (p < 0.05), impact
CC(=O)Nc1nnc(S(N)(=O)=O)s1 [acetazolamide]	–	–	–	–	–	–	–	–	–	–	–	–	–	–	–	–	–	–	–	Extracellular CA activity [26]: significantly reduced
